Data reported in PubChem BioAssay AID652047 (Broad Institute, 2013).

Test system: P. falciparum 3D7 in RBCs, SYBR Green DNA fluorescence
Assay: antimalarial activity against intraerythrocytic 3D7 parasites – 3D7 strain, red blood cells, SYBR Green, cherry-picked, dose response (AID 652047)

Compound	AC35 [µM]
CCCS(=O)(=O)c1c(S(=O)(=O)CCC)c2c(C)cccn2c1C(=O)N/N=C/c1cc(O)cc(O)c1	8.14
CCc1cc(SC#N)cc(C)c1NC(=O)CCl	7.77
COc1cc(NS(=O)(=O)c2ccc(C)cc2)c2ncccc2c1	6.47
CC(NC(=S)NC1CCC(C(C)(C)C)CC1)c1ccccc1 (stereo unspecified)	10.2
O=C(NCCC1=CCCCC1)c1c(O)nc2sccn2c1=O	17
O=C(CSc1ccc(-c2ccccn2)nn1)c1ccccc1	20
CCCCCCCn1c(=O)c(C(=O)OC)c(N)c2ccccc21	13.6
COc1cc(/C=N/O)cc(Br)c1OCc1cccc(Cl)c1	29.6
CCCCC(=O)NC(c1ccco1)c1cc(Cl)c2cccnc2c1O (stereo unspecified)	1.48
O=[N+]([O-])c1cc(C(F)(F)F)ccc1NCCc1c[nH]c2ccc(O)cc12	28.3
CC12CC3(C)CC(C)(C1)CC(NC(=O)N1CCCC1)(C2)C3	22.2
COc1cnc(-c2ccccn2)nc1Oc1ccc(C(C)(C)C)cc1	2.05
Nc1cc2nc3ccccc3oc-2cc1=O	2.14
O/N=C(\c1ccc(Cl)cc1)c1cc2ccccc2o1	8.56
CC(=O)Nc1cccc(NC(=O)CSc2ccc(-c3ccccn3)nn2)c1	14
O=C(Oc1c(Cl)cc(Cl)c2cccnc12)c1cccs1	17.7
Cc1c(C(=O)O)cccc1-c1ccc(/C=N/Nc2ccc(Br)cc2)o1	20.2
C=CCNc1nc(-c2ccccn2)nnc1-c1ccccc1	1.21
CC(=O)Oc1ccc(OC(C)=O)c(SCCCCCCl)c1	4.82
CCC(C)n1ncn(-c2ccc(N3CCN(c4ccc(OCC5COC(Cn6cncn6)(c6ccc(Cl)cc6Cl)O5)cc4)CC3)cc2)c1=O (stereo unspecified)	4.24
Cc1cc(-c2ccccc2)n(-c2cc(N/N=C/c3ccccc3O)ncn2)n1	3.99
O=C1c2ccccc2-n2c1nc1ccccc1c2=O	0.181
COc1ccc(Sc2nc(-c3ccccn3)ncc2OC)cc1	1.26
C=C(C)COc1ccc(-c2[nH]ncc2-c2ccccc2)c(O)c1	2.91
Cc1cc(/C=C2\SC(=S)N(C)C2=O)c(C)n1-c1ccc(O)cc1	10.8

Compound	AC35 [µM]
CN(c1ccccc1)c1nc(N2CCCC2)nc(-n2ccnc2)n1	9.8
Cc1ccc(NC(=S)c2nc3ccccc3[nH]2)c(C)c1	5.34
C(=C1c2ccccc2-c2ccccc21)c1ccncc1	12.1
CCCn1nc(C(=O)N2CCN(S(=O)(=O)c3ccc(C)c(C)c3)CC2)c2ccccc2c1=O	11.7
Cc1nn(CCC#N)c(N)c1C1(O)C(=O)Nc2c(Cl)cc(Cl)cc21 (stereo unspecified)	16
O=C(CC1CC2CCC1C2)Nc1nc(-c2ccccn2)cs1 (stereo unspecified)	2.94
O=S(=O)(Nc1ccccc1)c1ccc(Oc2ncc(C(F)(F)F)cc2Cl)cc1	28.7
CCc1ccc(OCc2n[nH]c(=S)n2Cc2ccccc2)cc1	32
c1ccc(C(=NNc2nc3ccccc3s2)c2ccccn2)cc1	1.5
CCCOc1ccc(S(=O)(=O)n2cc(F)c(=O)[nH]c2=O)cc1	30.4
Cc1ccc(O)c(-c2cc(-c3ccccc3C)[nH]n2)c1	10.8
Cc1cc(Cl)ccc1C(=O)C1CCCN(C(=O)c2cncs2)C1 (stereo unspecified)	26
O=C(OCC(=O)C12CC3CC(CC(C3)C1)C2)c1ccc(O)cc1	44.4
CC(=O)NC(c1ccc(C)cc1)c1cc([N+](=O)[O-])c2cccnc2c1O (stereo unspecified)	10.1
O=S1OC(c2ccccc2)c2cc(Cl)ccc21 (stereo unspecified)	11.3
Oc1c(CN2CCCC2)cc(COCc2ccccc2)c2cccnc12	13.8
O=C(N/N=C/c1ccc[nH]1)c1sc2ccccc2c1Cl	8.77
O=C(CN1CC[n+]2c(-c3cccs3)csc21)c1ccc(-c2ccccc2)cc1	2.39
Cc1ccc(Sc2ccc(NC(=O)CCl)cc2)cc1C	0.422
Cc1cccc(Nc2nc(-c3ccc(O)cc3O)cs2)n1	20.3
Clc1nc(-c2ccccn2)nc2scc(-c3ccccc3)c12	2.34
C=CCN(CC=C)C(=S)NC(=O)c1ccc(C)c(Br)c1	6.98
CC1(C)C=Cc2c(ccc3c2OC[C@@H](c2ccc(O)cc2O)C3)O1	17.8
CC1=CC(C)(C)N(S(=O)(=O)c2ccc(C)cc2)c2ccc(C)cc21	22.3
CCCCNc1c(-c2cccc(-c3ccc(OC)cc3)c2)nc2ccc(C)cn12	2

Compound	AC35 [µM]
O=C(Nc1nnc(SCc2ccc(F)cc2)s1)c1ccccn1	2.17
Cc1ccc(-c2c3c(nc4sc(C(N)=O)c(N)c24)CCCC3)o1	42.6
OCCN(CCO)c1cc2c3ccccc3ccc2c2ccccc12	1.69
COc1cnc(-c2ccccn2)nc1Sc1ccccc1	4.67
Oc1ccc(/C=N/Nc2ccc(C(F)(F)F)cn2)c(O)c1	5.21
Cc1ccccc1C(=O)NNC(=S)NC(=O)c1ccc(Cl)cc1Cl	41.1
O=C(NC(=S)N(CCc1ccccc1)CCc1ccccc1)c1ccco1	12
Cc1nc(SCc2ccc(OCCC(C)C)cc2)n[nH]1	16.5
C=CCNC(=S)N1CCC(Cc2ccccc2)CC1	43.5
Oc1ccc(Br)cc1/C=N/Nc1ccccn1	2.68
Cc1cccc(Oc2nc(-c3ccccn3)nc3ccccc23)c1	3.89
O=C(NCc1ccncc1)c1ccccc1Nc1ccc(SC(F)F)cc1	21.1
COC(=O)C1=C(C)NC(C)=C(C(=O)OCC(C)C)C1c1ccccc1[N+](=O)[O-] (stereo unspecified)	4.78
CCn1c2ccc(C)cc2c2nc3cc(C(=O)O)ccc3nc21	42.6
Clc1ccc(C(Cn2ccnc2)OCc2c(Cl)cccc2Cl)c(Cl)c1 (stereo unspecified)	2.76
COc1cnc(-c2ccccn2)nc1N(C)c1ccccc1	0.962
Oc1c(C(Nc2cccc(C(F)(F)F)c2)c2ccncc2)ccc2cccnc12 (stereo unspecified)	0.879
CCN(CC)C(=O)CSc1ncnc2sc(-c3ccccc3)cc12	35.6
Cc1cccc(N2CCN(C(=O)C3COc4ccccc4O3)CC2)c1C (stereo unspecified)	34.3
CN(C)c1nc(SCc2ccc(Cl)cc2)nc2c1CCCC2	40.2
COc1cccc(/C=N/Nc2ncnc(Cl)c2N)c1O	0.896
CN1CCN(C(=O)c2cc(COc3ccc(F)cc3Cl)on2)CC1c1ccccc1 (stereo unspecified)	38.8
CCN1C(=O)C(CC(=O)Nc2ccccc2Cl)N(NC(=O)c2cccc(F)c2)C1=S (stereo unspecified)	21.2
CC1(C)C2CCC1(C)C(OC(=O)c1ccc(O)cc1)C2 (stereo unspecified)	12.2
Cc1ccc(Cl)cc1NC1=C/C(=N\S(=O)(=O)c2cccs2)c2ccccc2C1=O	0.0436

Compound	AC35 [µM]
O=P(Nc1cccnc1)(Oc1ccccc1Cl)Oc1ccccc1Cl	40.7
[O-][n+]1cccc2c(Br)cc(Br)c(O)c21	7.13
O=C(NCC1CC1(Cl)Cl)Nc1ccc(Cl)c(Cl)c1 (stereo unspecified)	8.82
Cc1cc(C(=O)COC(=O)Cc2n[nH]c(=O)c3ccccc23)c(C)n1-c1cccc(C(F)(F)F)c1	6.57
CCCCCCC(Cl)(Cn1ccnc1)c1ccccc1 (stereo unspecified)	4.06
C=C1C(=O)C23CCC4C(C)(C(=O)OC)CCCC4(C)C2CCC1(O)C3 (stereo unspecified)	1.99
C=C(C)COc1ccc(-c2[nH]ncc2-c2ccc(Br)cc2)c(O)c1	3.55
O=C(CCCSc1ccccc1)Nc1nc(-c2ccccn2)cs1	6.69
O=C(/C(=N/N=C/c1ccc(O)c(O)c1O)c1ccccc1)c1ccccc1	4.96
Cc1nc(-c2ccccn2)nc(N(C)c2ccccc2)c1Cl	3.26
CCOC(=O)c1ccc(NC(=S)N(Cc2cccnc2)Cc2ccco2)cc1	21.7
CC(C)(C)C(=O)C(Oc1ccc(Cl)cc1)n1cncn1 (stereo unspecified)	36.6
Cc1ccc(Sc2cc(C)nc(-c3ccccn3)n2)cc1	3.19
O=c1c(O)c(-c2ccccc2)oc2ccccc12	31.1
CN(C)c1ccc(C=c2c3ccccc3n3c2c2c([n+]3C)CCCC2)cc1	0.15
CCCCNC(=S)N/N=C1\CCCCc2ccccc21	18.3
O=C(Nc1nc(-c2ccccn2)cs1)c1ccc(Br)s1	0.663
COc1ccc(O)c(C(=O)CC(=O)c2ccccc2C)c1	8.89
CC1(C(=O)OCC(=O)Nc2ccc3ccccc3c2)CC1(Cl)Cl (stereo unspecified)	42.6
S=C(NCc1ccco1)Nc1ccc(Oc2ccc(Cl)cc2)cc1	24
O=CC1=C(c2ccccc2)Oc2ccccc2O1	8.24
COc1cnc(-c2ccccn2)nc1Sc1ccc(C)cc1	1.73
CC(C)C(=O)NC(c1cccc([N+](=O)[O-])c1)c1ccc2cccnc2c1O (stereo unspecified)	1.01
COc1ccccc1-c1sc2cc3c(cc2c1C#Cc1cncn1C)OCO3	2.48
O=C(COc1ccccc1F)Nc1nc(-c2ccccn2)cs1	10.5

Compound	AC35 [µM]
CCCCCCCc1ccc(-c2ccc(O)cc2)nc1	7.43
c1ccc(-c2ccc(SCc3cccnc3)nn2)nc1	33.1
CNc1ccc2oc(C[C@H]3O[C@@]4(CC[C@H]3C)O[C@H]([C@H](C)C(=O)c3ccc[nH]3)[C@H](C)C[C@H]4C)nc2c1C(=O)O	1.01
NC(=Nc1nc(-c2ccccn2)cc2ccccc12)c1ccccn1	0.0527
Cn1ccc(=Nc2ccc(NC(=O)c3ccc(N=c4ccn(C)c5ccc([N+](=O)[O-])cc45)cc3)cc2)cc1	0.0417
Cc1ccc(NC2(c3nnnn3-c3c(C)cccc3C)CCCCC2)cc1	15.7
CCCCOC(=O)/C=C/c1ccc(OC(=O)OC)c(OC(=O)OC)c1	14.7
Nc1cc2c3ccccc3ccc2c2ccccc12	1.01
Cc1c(Cc2ccccc2)c(NCCN(C)C)n2c(nc3ccccc32)c1C#N	7.32
O=C(O)c1ccccc1NC(c1ccccc1)c1ccc2cccnc2c1O (stereo unspecified)	10.8
CCCCC(=O)NC(=S)NNC(=O)CCc1ccccc1	20.8
O=Cc1cc(N=Nc2ccccc2Cl)ccc1O	2.77
Cc1cccc(NC(=S)NC(C)CCc2ccccc2)c1 (stereo unspecified)	5.69
COc1ccc(C(=O)On2c(-c3ccc(Br)cc3)nc3ccccc3c2=O)cc1	5.71
COc1cccc(/C=N/NC(=O)c2nc(-c3ccccc3)cc(-c3ccccc3)n2)c1O	6.29
Oc1c(I)cc(Cl)c2cccnc12	2.33
NC(=O)N=Nc1c2[nH]c3ccccc3nc-2c2ccccc12	10.7
O=C(c1ccccc1)c1coc2c1C(=O)c1ccccc1C2=O	3.82
CC(=O)NC(c1cccc([N+](=O)[O-])c1)c1ccc2cccnc2c1O (stereo unspecified)	2
Cn1nc(C(F)(F)F)c(C#N)c1N1CCN(c2ccc(F)cc2)CC1	41.9
Oc1ccccc1-c1cc(-c2ccc3c(c2)OCCO3)n[nH]1	15.2
